# In US8551984B2, “Aminopyrimidines as SYK inhibitors” (Merck Sharp & Dohme Corp., priority 2009, dated 2013):
# Molecular target: recombinant human SYK (GST-hSYK fusion protein) (Homo sapiens, UniProt P43405)
# Experiment: biochemical
# Settings: rhSYK Activity (IC50), recombinant human GST-SYK 5 pM, ATP 25 μM, biotinylated substrate peptide 250 nM, HTRF, 10-dose titration
# Source text: Homogeneous Time-Resolved Fluorescence (HTRF) Assay for the Recombinant Human SYK Enzyme:
row,IC50 [nM],Structure (SMILES)
1,< 100,"Cc1cc(Nc2nccc(C(F)(F)F)n2)cc(-c2cnc(-c3cn[nH]c3)s2)c1 [Example 114, N-{3-methyl-5-[2-(1H-pyrazol-4-yl)-1,3-thiazol-5-yl]phenyl}-4-(trifluoromethyl)pyrimidin-2-amine]"
2,< 100,Cc1cc(Nc2nccc(C(F)(F)F)n2)cc(-c2cnc(-c3cnn4c3CCCC4)s2)c1 [Example 114-1]
3,< 100,Cc1cc(Nc2nccc(C(F)(F)F)n2)cc(-c2cnc(-c3cccnc3)s2)c1 [Example 114-3]
4,< 100,Cc1cc(Nc2nccc(C(F)(F)F)n2)cc(-c2cnc(-c3ccncc3)s2)c1 [Example 114-4]
5,100 to 1000,Cc1cc(Nc2nccc(C(F)(F)F)n2)cc(-c2cnc(-c3cccs3)s2)c1 [Example 114-5]
6,100 to 1000,Cc1cc(Nc2nccc(C(F)(F)F)n2)cc(-c2cnc(-c3ccsc3)s2)c1 [Example 114-6]
7,< 100,Cc1cc(Nc2nccc(C(F)(F)F)n2)cc(-c2cnc(-c3ccco3)s2)c1 [Example 114-7]
8,< 100,Cc1cc(Nc2nccc(C(F)(F)F)n2)cc(-c2cnc(-c3ccc[nH]3)s2)c1 [Example 114-8]
9,< 100,"Cc1cc(Nc2nccc(C(F)(F)F)n2)cc(-c2cnc(-c3cnn(CCO)c3)s2)c1 [Example 115, 2-{4-[5-(3-methyl-5-{[4-(trifluoromethyl)pyrimidin-2-yl]amino}phenyl)-1,3-thiazol-2-yl]-1H-pyrazol-1-yl}ethanol]"
10,< 100,"Cc1cc(Nc2nccc(OC(C)C)n2)cc(-c2cnc([C@@]3(O)CC[C@H](C(N)=O)C(C)(C)C3)s2)c1 [Example 119, (1S,4R)-4-hydroxy-2,2-dimethyl-4-[5-(3-methyl-5-{[4-(propan-2-yloxy)pyrimidin-2-yl]-amino}phenyl)-1,3-thiazol-2-yl]cyclohexanecarboxamide]"
11,< 100,"COC(=O)[C@@H]1CC[C@@](O)(c2ncc(-c3cc(C)cc(Nc4nccc(C(F)(F)F)n4)c3)s2)CC1(C)C [Example 121, Methyl(1R,4S)-4-hydroxy-2,2-dimethyl-4-[5-(3-methyl-5-{[4-(trifluoromethyl)pyrimidin-2-yl]-amino}phenyl)-1,3-thiazol-2-yl]cyclohexanecarboxylate]"
12,100 to 1000,"COCCCc1ccnc(Nc2cc(C)cc(-c3cnc(C4(O)CCC(C(=O)OC(C)(C)C)CC4)s3)c2)n1 (stereo not shown) [Example 122, tert-butyl 4-hydroxy-4-[5-(3-{[4-(3-methoxypropyl)pyrimidin-2-yl]amino}-5-methylphenyl)-1,3-thiazol-2-yl]cyclohexanecarboxylate]"
13,< 100,"CC1(C)C[C@@](O)(c2ncc(-c3cc(CN)cc(Nc4nccc(C(F)(F)F)n4)c3)s2)CC[C@@H]1C(=O)O [Example 123, (1S,4R)-4-{5-[3-(aminomethyl)-5-{[4-(trifluoromethyl)pyrimidin-2-yl]amino}phenyl]-1,3-thiazol-2-yl}-4-hydroxy-2,2-dimethylcyclohexanecarboxylic acid]"
14,< 100,"CC1(C)C[C@@](O)(c2ncc(-c3cc(CNC(N)=O)cc(Nc4nccc(C(F)(F)F)n4)c3)s2)CC[C@@H]1C(=O)O [Example 124, (1S,4R)-4-[5-(3-[(carbamoylamino)methyl]-5-{[4-(trifluoromethyl)pyrimidin-2-yl]amino}phenyl)-1,3-thiazol-2-yl]-4-hydroxy-2,2-dimethylcyclohexanecarboxylic acid]"
15,< 100,"CC(=O)NCc1cc(Nc2nccc(C(F)(F)F)n2)cc(-c2cnc([C@@]3(O)CC[C@H](C(=O)O)C(C)(C)C3)s2)c1 [Example 125, (1S,4R)-4-[5-(3-[(acetylamino)methyl]-5-{[4-(trifluoromethyl)pyrimidin-2-yl]amino}phenyl)-1,3-thiazol-2-yl]-4-hydroxy-2,2-dimethylcyclohexanecarboxylic acid]"

# Same assay, conditions: rhSYK Activity, Table 113A
row,IC50 [nM],Structure (SMILES)
1,< 100,COCc1cc(Nc2nccc(C(F)(F)F)n2)cc(-c2cnc([C@@]3(O)CC[C@H](C(=O)O)C(C)(C)C3)s2)c1 [Example 113A-62]
2,100 to 1000,COC(=O)C1CCC(O)(c2ncc(-c3cc(Cl)cc(Nc4nccc(C(F)(F)F)n4)c3)s2)CC1(C)C (stereo not shown) [Example 113A-63]
3,< 100,Cc1cc(Nc2nccc(C)n2)cc(-c2cnc(C3(O)CCC(C(=O)O)C(C)C3C)s2)c1 (stereo not shown) [Example 113A-66]
4,< 100,CCOC(=O)C1CCC(O)(c2ncc(-c3cc(C)cc(Nc4nccc(C)n4)c3)s2)C(C)C1C (stereo not shown) [Example 113A-70]
5,< 100,Cc1cc(Nc2nccc(C)n2)cc(-c2cnc(C3(O)CCC(C(=O)O)CC3C)s2)c1 (stereo not shown) [Example 113A-80]
6,< 100,CCOC(=O)C1CCC(O)(c2ncc(-c3cc(C)cc(Nc4nccc(C)n4)c3)s2)C(C)C1 (stereo not shown) [Example 113A-87]
7,< 100,Cc1cc(Nc2nccc(C(F)(F)F)n2)cc(-c2cnc(C3(O)CCC(C(=O)O)CC3C)s2)c1 (stereo not shown) [Example 113A-88]
8,< 100,CCOC(=O)C1CCC(O)(c2ncc(-c3cc(C)cc(Nc4nccc(C(F)(F)F)n4)c3)s2)C(C)C1 (stereo not shown) [Example 113A-89]
9,< 100,Cc1cc(Nc2nccc(C)n2)cc(-c2cnc(C3(O)CCC(C(=O)O)CC3O)s2)c1 (stereo not shown) [Example 113A-90]
10,< 100,Cc1cc(Nc2nccc(C)n2)cc(-c2cnc(C3(O)CCC(C(=O)O)CC3(C)C)s2)c1 (stereo not shown) [Example 113A-92]

# Same assay, conditions: rhSYK Activity, Table 113B
row,IC50 [nM],Structure (SMILES)
1,< 100,Cc1cc(Nc2nccc(C)n2)cc(-c2cnc(C3(O)CC(C)C(C(=O)O)CC3C)s2)c1 (stereo not shown) [Example 113B-3]
2,< 100,CCOC(=O)C1CC(C)C(O)(c2ncc(-c3cc(C)cc(Nc4nccc(C)n4)c3)s2)CC1C (stereo not shown) [Example 113B-7]
3,< 100,CCOC(=O)C1CC(C)C(O)(c2ncc(-c3cc(C)cc(Nc4nccc(C)n4)c3)s2)CC1C (stereo not shown) [Example 113B-8]
4,< 100,CCOC(=O)C1CC(C)C(O)(c2ncc(-c3cc(C)cc(Nc4nccc(C)n4)c3)s2)CC1C (stereo not shown) [Example 113B-9]
5,< 100,CCOC(=O)C1CC(C)C(O)(c2ncc(-c3cc(C)cc(Nc4nccc(C)n4)c3)s2)CC1C (stereo not shown) [Example 113B-10]
6,100 to 1000,CCOC(=O)C1CC(C)C(O)(c2ncc(-c3cc(C)cc(Nc4nccc(C)n4)c3)s2)CC1C (stereo not shown) [Example 113B-11]
7,< 100,Cc1cc(Nc2nccc(C(F)(F)F)n2)cc(-c2cnc(C3(O)CC(C)C(C(=O)O)CC3C)s2)c1 (stereo not shown) [Example 113B-12]
8,< 100,CCOC(=O)C1CC(C)C(O)(c2ncc(-c3cc(C)cc(Nc4nccc(C(F)(F)F)n4)c3)s2)CC1C (stereo not shown) [Example 113B-17]
9,< 100,CCOC(=O)C1CC(C)C(O)(c2ncc(-c3cc(C)cc(Nc4nccc(C(F)(F)F)n4)c3)s2)CC1C (stereo not shown) [Example 113B-18]
10,< 100,CCOC(=O)C1CC(C)C(O)(c2ncc(-c3cc(C)cc(Nc4nccc(C(F)(F)F)n4)c3)s2)CC1C (stereo not shown) [Example 113B-19]
11,100 to 1000,CCOC(=O)C1CC(C)C(O)(c2ncc(-c3cc(C)cc(Nc4nccc(C(F)(F)F)n4)c3)s2)CC1C (stereo not shown) [Example 113B-20]
12,< 100,Cc1cc(Nc2nccc(C)n2)cc(-c2cnc(C3(O)CC(C)C(C(=O)O)C(C)C3)s2)c1 (stereo not shown) [Example 113B-21]
13,100 to 1000,Cc1cc(Nc2nccc(C)n2)cc(-c2cnc(C3(O)CC(C)C(C(=O)OC(C)C)C(C)C3)s2)c1 (stereo not shown) [Example 113B-23]
14,< 100,Cc1cc(Nc2nccc(C(F)(F)F)n2)cc(-c2cnc(C3(O)CC(C)C(C(=O)O)C(C)C3)s2)c1 (stereo not shown) [Example 113B-24]
15,1000 to 10000,Cc1cc(Nc2nccc(C(F)(F)F)n2)cc(-c2cnc(C3(O)CC(C)C(C(=O)OC(C)C)C(C)C3)s2)c1 (stereo not shown) [Example 113B-26]
16,100 to 1000,Cc1cc(Nc2nccc(C(F)(F)F)n2)cc(-c2cnc(C3(O)CC(C)C(C(=O)OC(C)C)C(C)C3)s2)c1 (stereo not shown) [Example 113B-27]
17,< 100,Cc1cc(Nc2nccc(C)n2)cc(-c2cnc(C3(O)C(C)CC(C(=O)O)CC3C)s2)c1 (stereo not shown) [Example 113B-28]
18,< 100,CCOC(=O)C1CC(C)C(O)(c2ncc(-c3cc(C)cc(Nc4nccc(C)n4)c3)s2)C(C)C1 (stereo not shown) [Example 113B-29]
19,< 100,Cc1cc(Nc2nccc(C(F)(F)F)n2)cc(-c2cnc(C3(O)C(C)CC(C(=O)O)CC3C)s2)c1 (stereo not shown) [Example 113B-30]
20,< 100,CCOC(=O)C1CC(C)C(O)(c2ncc(-c3cc(C)cc(Nc4nccc(C(F)(F)F)n4)c3)s2)C(C)C1 (stereo not shown) [Example 113B-31]

# Same assay, conditions: rhSYK Activity, Table 113D, upper part
row,IC50 [nM],Structure (SMILES)
1,< 100,C=C(c1ccc(C(=O)O)cc1)c1ncc(-c2cc(C)cc(Nc3nccc(C(F)(F)F)n3)c2)s1 [Example 113D-1]
2,100 to 1000,C=C(c1ccc(C(=O)OC)cc1)c1ncc(-c2cc(C)cc(Nc3nccc(C(F)(F)F)n3)c2)s1 [Example 113D-2]
3,< 100,Cc1cc(Nc2nccc(C(F)(F)F)n2)cc(-c2cnc(C3(c4ccc(C(=O)O)cc4)CC3)s2)c1 [Example 113D-3]
4,< 100,Cc1cc(Nc2nccc(C(F)(F)F)n2)cc(-c2cnc(C(C)(C)c3ccc(C(=O)O)cc3)s2)c1 [Example 113D-5]
5,< 100,Cc1cc(Nc2nccc(C(F)(F)F)n2)cc(-c2cnc(C(F)(F)c3ccc(C(=O)O)cc3)s2)c1 [Example 113D-7]
6,100 to 1000,COC(=O)c1ccc(C(C)(C)c2ncc(-c3cc(C)cc(Nc4nccc(C(F)(F)F)n4)c3)s2)cc1 [Example 113D-9]

# Same assay, conditions: rhSYK Activity, Table 115
row,IC50 [nM],Structure (SMILES)
1,< 100,Cc1cc(Nc2nccc(C(F)(F)F)n2)cc(-c2cnc(-c3cnn(C4CCOCC4)c3)s2)c1 [Example 115-1]
2,< 100,Cc1cc(Nc2nccc(C(F)(F)F)n2)cc(-c2cnc(-c3cnn(CCC#N)c3)s2)c1 [Example 115-2]
3,< 100,Cc1cc(Nc2nccc(C(F)(F)F)n2)cc(-c2cnc(-c3cnn(CCCO)c3)s2)c1 [Example 115-3]
4,< 100,Cc1cc(Nc2nccc(C(F)(F)F)n2)cc(-c2cnc(-c3cnn(C[C@@H](O)CO)c3)s2)c1 [Example 115-4]
5,< 100,Cc1cc(Nc2nccc(C(F)(F)F)n2)cc(-c2cnc(-c3cnn(CC(C)(C)O)c3)s2)c1 [Example 115-5]
6,< 100,Cc1cc(Nc2nccc(C(F)(F)F)n2)cc(-c2cnc(-c3cnn(C(CCO)C(=O)O)c3)s2)c1 (stereo not shown) [Example 115-6]
7,< 100,Cc1cc(Nc2nccc(C(F)(F)F)n2)cc(-c2cnc(-c3cnn(CC4CNC(=O)O4)c3)s2)c1 (stereo not shown) [Example 115-7]
